Reference: patent publication US4983603A, “Tricyclic cholinergic receptor agonists” (Societe Anonyme: SANOFI, priority 1987, dated 1991)

Key:
[1] = target: T1, M1-type muscarinic cholinergic receptor (Rattus norvegicus, UniProt P08482); assay: Test for affinity for the M1-type muscarinic cholinergic receptor (displacement of [3H]pirenzepine); format: binding; details: for r = (M2/M1), ratio of the IC50 values (selectivity): M2 IC50 (guinea-pig ileum) / M1 IC50 (rat hippocampus); for IC50: homogenate of rat hippocampus, [3H]PZ 1 nM, 2 h at 4° C., pH 7.40
T1 sequence (P08482 1-460): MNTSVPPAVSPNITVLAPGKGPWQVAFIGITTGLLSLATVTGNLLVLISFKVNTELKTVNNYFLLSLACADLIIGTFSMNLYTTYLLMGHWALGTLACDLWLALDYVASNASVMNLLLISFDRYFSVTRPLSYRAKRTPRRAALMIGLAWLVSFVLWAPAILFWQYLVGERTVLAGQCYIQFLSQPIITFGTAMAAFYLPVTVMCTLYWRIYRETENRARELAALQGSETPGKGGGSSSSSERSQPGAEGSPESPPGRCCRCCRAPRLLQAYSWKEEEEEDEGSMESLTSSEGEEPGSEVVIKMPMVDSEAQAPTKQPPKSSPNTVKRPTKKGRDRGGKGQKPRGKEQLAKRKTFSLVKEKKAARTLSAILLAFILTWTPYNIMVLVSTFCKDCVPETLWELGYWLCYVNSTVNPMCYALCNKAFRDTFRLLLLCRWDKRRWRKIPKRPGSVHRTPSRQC
Description: (A) Test for Affinity for the M1 -Type Muscarinic Cholinergic Receptor
The interaction of the molecules with M1 -type muscarinic receptors was studied by in vitro measurement, on a homogenate of rat hippocampus, of the displacement of tritiated pirenzepine ([^3 H]PZ) from its specific binding sites. Aliquots (10 μl) of a 5% (w/v) homogenate of rat hippocampus in an Na2 HPO4 buffer (50 mM, pH 7.40) are incubated for 2 h at 4° C. in the presence of [^3 H]PZ (76 Ci/nmol; final concentration: 1 nM) and increasing concentrations of products to be studied. The final volume is 2 ml. The reaction is stopped by centrifugation for 10 min at 50,000×g. After decantation and washing of the residues, the bound radioactivity is counted by liquid scintillation. The non-specific binding is determined in the presence of 10 μmol/l of atropine sulfate. The 50% inhibitory concentration (IC50) is determined graphically (Ref.: Watson J. D., Roeskoe W. R. and Yamamura H. I., Life Sci., 31, 2019-2029, 1982).

[2] = target: T2, M2-type muscarinic cholinergic receptor (Cavia porcellus, UniProt H0VRN8); assay: Test for affinity for the M2-type muscarinic cholinergic receptor (displacement of [3H]N-methylscopolamine); format: binding; details: homogenate of smooth muscle of guinea-pig ileum, [3H]NMS 0.3 nM, 20 min at 30° C., pH 7.5
T2 construct: on a homogenate of smooth muscle of guinea-pig ileum; from tissue; host or cells: guinea-pig ileum smooth muscle homogenate
T2 sequence (H0VRN8 1-466): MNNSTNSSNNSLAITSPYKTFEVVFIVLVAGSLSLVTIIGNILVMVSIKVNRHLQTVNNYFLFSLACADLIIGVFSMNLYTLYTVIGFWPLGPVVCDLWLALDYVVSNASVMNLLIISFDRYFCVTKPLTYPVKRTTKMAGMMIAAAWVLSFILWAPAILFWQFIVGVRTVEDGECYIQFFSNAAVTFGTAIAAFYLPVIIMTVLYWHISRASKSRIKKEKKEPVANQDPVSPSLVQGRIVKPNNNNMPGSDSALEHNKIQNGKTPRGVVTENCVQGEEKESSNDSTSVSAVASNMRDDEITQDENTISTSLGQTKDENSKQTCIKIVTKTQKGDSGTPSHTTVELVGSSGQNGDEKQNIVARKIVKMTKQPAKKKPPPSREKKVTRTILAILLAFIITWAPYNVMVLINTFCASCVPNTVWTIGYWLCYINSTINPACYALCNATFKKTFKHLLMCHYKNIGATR
Text: The M1 -type receptors are concentrated in certain areas of the brain, such as the hippocampus, the cerebral cortex and the striatum, and also in the sympathetic ganglia. These binding sites can be selectivity labeled with [^3 H] pirenzepine ([^3 H]PZ). The M2 -type receptors predominate in the heart and ileum and can be labeled with [^3 H] N-methylscopolamine ([^3 H]NMS). To determine the selectivity of the products of the invention towards the M1 and M2 sites, we studied their interaction in vitro with [^3 H]PZ and [^3 H]NMS bound with a high affinity to membranes of rat hippocampus and membranes of smooth muscle of guinea-pig ileum, respectively.
(B) Test for Affinity for the M2 -Type Muscarinic Cholinergic Receptor
The interaction with M2 -type muscarinic receptors was studied by in vitro measurement, on a homogenate of smooth muscle of guinea-pig ileum, of the displacement of tritiated N-methylscopolamine ([^3 H]NMS) from its specific binding sites. Aliquots (50 μl) of a 0.625% (w/v) homogenate of smooth muscle of guinea-pig ileum in MEPES buffer (20 mM) containing NaCl (100 mM) and MgCl2 (10 mM) (final pH: 7.5) are incubated for 20 min at 30° C. in the presence of [^3 H]NMS ([…]; final concentration: 0.3 nM) and increasing concentrations of products to be tested. The final volume is 1 ml. The reaction is stopped by centrifugation for 5 min at 15,000×g. The non-specific binding is determined in the presence of 10 μmol/l of atropine sulfate. (Ref.: Hammer R., Berrie C. P., Birdsall N. I. M., Burgen A. S. V. and Hulme E. C., Nature, 283, 90-92, 1980; Hulme E. C., Birdsall N. I. M., Burgen A. S. V. and Mettha P., Mol. Pharmacol., 14, 737-750, 1978).
Table 2 indicates the affinities of the products of the invention for M1 and M2 receptors. The results are expressed as 50% inhibitory concentrations (IC50), i.e. the concentration (in μM) which causes a 50% displacement of the tritiated ligand bound to the membrane receptors. The IC50 for displacement of ^3 H-pirenzepine represents the affinity for the M1 receptor; the IC50 for displacement of ^3 H-NMS represents the affinity for the M2 receptor.

[3] = system: M1 central muscarinic cholinergic receptors; assay: Antagonism of rotational behavior induced by intrastriatal injection of pirenzepine in mice; format: in vivo, mice (Swiss, CD 1, female); details: i.p., 15 minutes before pirenzepine, * p<0.05, ** p<0.01 vs control animals
Description: Pirenzepine (PZ) is a specific antagonist of M1 central muscarinic cholinergic receptors. The intrastriatal injection of PZ into mice induces rotational behavior. The antagonism of this behavior by the products according to the invention was studied. The products according to the invention are injected intraperitoneally (i.p.) after solubilization in distilled water or suspension in a 5% solution of gum arabic. The control animals receive an injection of the pure solvent under the same conditions. The animals used are female mice (Swiss, CD 1, Charles River, France) with a body weight of between 25 and 30 grams. Pirenzepine is dissolved in a phosphate buffer; the pH of the solution is 6. The products to be studied or their solvents are injected intraperitoneally, in a volume of 0.4 ml per 20 g of body weight, 15 minutes before a direct injection of pirenzepine at a dose of […] into the right striatum of the mouse, according to the method described by P. WORMS et al. in Eur. J. Pharmacol., 1986, 121, 395-401. The number of contralateral rotations (rotations in the opposite direction to the side injected) was counted for three 2-minute periods after the injection of pirenzepine: minutes 2 to 4, 8 to 10 and 13 to 15. Each treatment includes 1 to 3 doses and 10 animals per dose. For each treatment, the total number of rotations and the percentage antagonism compared with the control group are calculated.

Compound | r = (M2/M1), ratio of the IC50 values (selectivity) [1] | IC50 [1] [µM] | IC50 [2] [µM] | Pirenzepine antagonism (percentage antagonism compared with control group, rotations) ([3]; 3 mg/kg) [%] | Pirenzepine antagonism (percentage antagonism compared with control group, rotations) ([3]; 10 mg/kg) [%] | Pirenzepine antagonism (percentage antagonism compared with control group, rotations) ([3]; 30 mg/kg) [%]
CCN(CC)CCNc1cc2c(nn1)-c1ccccc1SC2.Cl.Cl [SR 96056 A, 2-(2-Diethylaminoethylamino)-9,10-dihydro-9-thia-3,4-diazaphenanthrene dihydrochloride] | 24 | 0.15 | 3.6 | -14 | -55 | -79
CCN(CC)CCCNc1cc2oc3ccccc3c2nn1 [SR 45041 A] | 100 | 0.1 | 10 | -72 |  | 
CCN(CC)CCNc1cc2oc3ccccc3c2nn1 [SR 45040 A] | 64 | 0.7 | 45 | -47 |  | 
Cl.Cl.c1ccc2c(c1)OCc1cc(NCCN3CCOCC3)nnc1-2 [SR 96094 A, 2-(2-Morpholinoethylamino)-9,10-dihydro-9-oxa-3,4-diazaphenanthrene dihydrochloride] | > 27 | 3.6 | > 100 | -8 | -20 | -85
CCN1CCCC1CNc1cc2oc3ccccc3c2nn1 (centres unmarked) [SR 45042 A] | 500 | 0.1 | 50 | -52 |  | 
Cl.Cl.c1ccc2c(c1)oc1cc(NCCN3CCOCC3)nnc12 [SR 44288 A, 2-(2-Morpholinoethylamino)-9-oxa-3,4-diazafluorene dihydrochloride] | > 33 | 3 | > 100 | -32 | -52 | -100
Cl.Cl.c1ccc2c(c1)sc1cc(NCCN3CCOCC3)nnc12 [SR 44289 A, 2-(2-Morpholinoethylamino)-9-thia-3,4-diazafluorene dihydrochloride] | 28 | 3.5 | 100 | -42 | -85 | 
